Laboratory results taken from BindingDB's records for PubMed 36166643 (University of Santiago De Compostela, 2022).

Assay: Induction of CYP24A1 (unknown orgin) transcriptional activity trasfected in human MCF7 cells incuabted for 48 hrs by luciferase reporter gene assay

Row | SMILES | EC50
1 | C=C1/C(=C\C=C(/CCCCCC(C)(C)O)c2cccc(CCCCCC(C)(C)O)c2)C[C@@H](O)C[C@@H]1O | 5.6 nM
2 | C=C1/C(=C\C=C\c2cc(CCCCCC(C)(C)O)cc(CCCCCC(C)(C)O)c2)C[C@@H](O)C[C@@H]1O | 3 nM
